Columns and labels:
DGKζ = DGKζ (Homo sapiens (Human), UniProt Q13574); assay: Biochemical DGK IC50 assay (ADP-Glo, lipid micelle substrate), DGKζ; details: full length DGKζ 0.5 nM, ATP 140 μM, DAG 80 μM
Outline: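 ADP-Glo luminescence measured ADP made in a 1 h room-temperature reaction. The enzyme was Sf9-expressed, purified full-length human DGKζ, and the substrate was DAG/PS micelles. Assay buffer held 50 mM HEPES, 10 mM MgCl2, 0.01 mM CaCl2, 0.1 mM Na3VO4 and 0.01% BSA. IC50 was derived from activity inhibition over a compound concentration series.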

DGKα = DGKα (Homo sapiens (Human), UniProt P23743); assay: Biochemical DGK IC50 assay (ADP-Glo, lipid micelle substrate), DGKα; details: full length DGKα […], ATP 140 μM, DAG 80 μM; also: full length DGKα 7.5 nM
Outline: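 Luminescent ADP-Glo detection followed a 1 h room-temperature reaction of full-length DGKα on DAG/PS micelles, in HEPES buffer with 10 mM MgCl2, 0.01 mM CaCl2, 0.1 mM Na3VO4, BSA and Tween-20. IC50 derived from inhibition across increasing compound concentrations.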

Chain of DGKα (P23743 whole entry): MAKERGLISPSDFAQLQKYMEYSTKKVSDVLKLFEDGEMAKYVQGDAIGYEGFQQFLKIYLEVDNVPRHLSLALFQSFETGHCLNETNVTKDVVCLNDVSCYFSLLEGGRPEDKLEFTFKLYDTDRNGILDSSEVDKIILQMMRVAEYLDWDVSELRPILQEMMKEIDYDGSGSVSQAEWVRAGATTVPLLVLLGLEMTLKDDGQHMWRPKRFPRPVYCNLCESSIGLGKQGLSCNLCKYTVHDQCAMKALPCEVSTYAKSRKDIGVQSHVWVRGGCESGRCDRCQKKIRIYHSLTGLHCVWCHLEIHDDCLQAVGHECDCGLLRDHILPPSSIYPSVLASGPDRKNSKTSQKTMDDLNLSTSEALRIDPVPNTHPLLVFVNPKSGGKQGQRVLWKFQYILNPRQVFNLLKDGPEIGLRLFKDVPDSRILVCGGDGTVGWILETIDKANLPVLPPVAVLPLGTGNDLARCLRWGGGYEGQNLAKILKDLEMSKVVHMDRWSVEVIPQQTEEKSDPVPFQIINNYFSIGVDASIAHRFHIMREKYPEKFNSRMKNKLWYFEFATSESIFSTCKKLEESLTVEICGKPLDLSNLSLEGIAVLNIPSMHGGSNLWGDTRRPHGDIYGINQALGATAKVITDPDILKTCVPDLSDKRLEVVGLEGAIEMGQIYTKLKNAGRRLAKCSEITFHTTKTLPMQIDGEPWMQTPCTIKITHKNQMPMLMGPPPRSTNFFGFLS
Chain of DGKζ (Q13574 other isoform, or with tags, fused parts or gaps): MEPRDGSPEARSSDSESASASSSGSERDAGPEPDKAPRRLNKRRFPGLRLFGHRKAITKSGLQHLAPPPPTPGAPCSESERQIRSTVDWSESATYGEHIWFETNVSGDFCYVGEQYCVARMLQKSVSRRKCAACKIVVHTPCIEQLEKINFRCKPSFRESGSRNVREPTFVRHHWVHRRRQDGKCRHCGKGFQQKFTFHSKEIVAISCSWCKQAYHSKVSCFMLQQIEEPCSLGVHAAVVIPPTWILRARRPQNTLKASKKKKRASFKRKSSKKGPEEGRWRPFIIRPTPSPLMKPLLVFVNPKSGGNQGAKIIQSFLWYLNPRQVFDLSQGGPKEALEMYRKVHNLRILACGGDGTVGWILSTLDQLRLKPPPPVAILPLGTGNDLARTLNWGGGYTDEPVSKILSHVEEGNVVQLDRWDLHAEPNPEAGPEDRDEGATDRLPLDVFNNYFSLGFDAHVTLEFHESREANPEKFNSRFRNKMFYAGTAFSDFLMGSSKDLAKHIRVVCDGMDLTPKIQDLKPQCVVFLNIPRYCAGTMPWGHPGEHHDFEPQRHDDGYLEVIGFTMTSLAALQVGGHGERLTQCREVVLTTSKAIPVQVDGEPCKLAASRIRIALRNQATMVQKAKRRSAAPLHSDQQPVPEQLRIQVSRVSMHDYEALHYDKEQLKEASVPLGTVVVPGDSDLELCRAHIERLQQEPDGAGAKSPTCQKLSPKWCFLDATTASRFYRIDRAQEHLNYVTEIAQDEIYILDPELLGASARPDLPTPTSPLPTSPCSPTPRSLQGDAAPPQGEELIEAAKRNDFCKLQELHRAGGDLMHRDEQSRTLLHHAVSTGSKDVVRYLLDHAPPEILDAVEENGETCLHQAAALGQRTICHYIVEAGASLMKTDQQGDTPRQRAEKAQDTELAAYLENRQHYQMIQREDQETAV

| Structure (SMILES) | IC50 (DGKζ) | IC50 (DGKα) |
| --- | --- | --- |
| CC[C@H]1CN(C(C)c2ccc(C(=O)N3CC(OC)C3)cc2)[C@H](CC)CN1c1cc(=O)n(C)c2cn(CC#N)nc12 (single isomer, unassigned) [Compound A1a] | 1.44 µM | 0.023 µM |
| CC[C@H]1CN(C(C)c2ccc3ncc(F)n3n2)[C@H](CC)CN1c1cc(=O)n(C)c2cn(CC#N)nc12 (single isomer, unassigned) [Compound A168a] | 3.6 µM | 3.41 µM |
| CC[C@H]1CN(C(C)c2ccn3ncc(F)c3c2)[C@H](CC)CN1c1cc(=O)n(C)c2cn(CC#N)nc12 (single isomer, unassigned) [Compound A165b] | 1.58 µM | 2.44 µM |
| CC[C@@H]1CN(c2cc(=O)n(C)c3cn(CC#N)nc23)[C@@H](C)CN1[C@H](C)c1ccn2nc(C)c(F)c2n1 (single isomer, unassigned) [Compound A173b] | 2.95 µM | > 10 µM |
| CC[C@H]1CN(C(C)c2ccn3ncc(F)c3n2)[C@H](CC)CN1c1cc(=O)n(C)c2cn(CC#N)nc12 (single isomer, unassigned) [Compound A161a] | > 10 µM | > 10 µM |
| CC[C@H]1CN(C(C)c2ccc3cc(C(F)F)sc3n2)[C@H](CC)CN1c1cc(=O)n(C)c2cn(CC#N)nc12 (single isomer, unassigned) [Compound A144a] | 1.3 µM | 0.27 µM |
| CC[C@H]1CN(C(C)c2ccn3nc(F)cc3n2)[C@H](CC)CN1c1cc(=O)n(C)c2cn(CC#N)nc12 (single isomer, unassigned) [Compound A158a] | > 10 µM | 0.33 µM |
| CC[C@H]1CN(C(C)c2ccc(CNC)cc2)[C@H](CC)CN1c1cc(=O)n(C)c2cn(CC#N)nc12 (stereo partly drawn) [Compound A29, 2-(7-((2S,5R)-2,5-diethyl-4-(1-(4-((methylamino)methyl)phenyl)ethyl)piperazin-1-yl)-4-methyl-5-oxo-4,5-dihydro-2H-pyrazolo[4,3-b]pyridin-2-yl)acetonitrile] | 3.93 µM | 2.6 µM |
| CC[C@H]1CN(C(C)c2ccn3nc(C)c(C)c3n2)[C@H](CC)CN1c1cc(=O)n(C)c2cn(CC#N)nc12 (single isomer, unassigned) [Compound A156a] | 5.13 µM | > 10 µM |
| CC[C@H]1CN(C(C)c2cnc3ncsc3c2)[C@H](CC)CN1c1cc(=O)n(C)c2cn(CC#N)nc12 (single isomer, unassigned) [Compound A98b] | 2.87 µM | 9.47 µM |
| CC[C@H]1CN(C(C)c2ccc3nc(C)sc3n2)[C@H](CC)CN1c1nc(=O)n(C)c2cn(CC#N)nc12 (single isomer, unassigned) [Compound A129a] | 0.626 µM | 2.1 µM |
| CC[C@H]1CN(C(C)c2ccc(CN3CCC(OC)C3)cc2)[C@H](CC)CN1c1cc(=O)n(C)c2cn(CC#N)nc12 (single isomer, unassigned) [Compound A203b] | 7.61 µM | 11.6 µM |
| CC[C@H]1CN(C(C)c2ccc3c(C)cnn3c2)[C@H](CC)CN1c1cc(=O)n(C)c2cn(CC#N)nc12 (single isomer, unassigned) [Compound A204b] | 0.971 µM | 7.3 µM |
| CC[C@H]1CN(C(C)c2ccc(OC(F)F)cc2)[C@H](CC)CN1c1cc(=O)n(C)c2cn(CC#N)nc12 (single isomer, unassigned) [Compound A19b] | 4.9 µM | 0.289 µM |
| CC#CCn1cc2c(n1)c(N1C[C@@H](CC)N(C(C)c3ccc4c(n3)OCC4)C[C@@H]1C)cc(=O)n2C (stereo partly drawn) [Compound A200, 2-(but-2-yn-1-yl)-7-((2S,5R)-4-(1-(2,3-dihydrofuro[2,3-b]pyridin-6-yl)ethyl)-5-ethyl-2-methylpiperazin-1-yl)-4-methyl-2,4-dihydro-5H-pyrazolo[4,3-b]pyridin-5-one] | 0.991 µM | < 0.0233 µM |

Compounds with a lower IC50 (DGKζ), results first:

| IC50 (DGKζ) | IC50 (DGKα) | Structure (SMILES) |
| --- | --- | --- |
| 0.5 µM | 0.079 µM | CC[C@H]1CN(C(C)c2ccc(OCCOC)cc2)[C@H](CC)CN1c1cc(=O)n(C)c2cn(CC#N)nc12 (stereo partly drawn) [Compound A11, 2-(7-((2S,5R)-2,5-diethyl-4-(1-(4-(2-methoxyethoxy)phenyl)ethyl)piperazin-1-yl)-4-methyl-5-obo-4,5-dihydro-2H-pyrazolo[4,3-b]pyridin-2-yl)acetonitrile] |
| 0.331 µM | 4.49 µM | CC[C@H]1CN(C(C)c2ncc(C)cc2C)[C@H](CC)CN1c1cc(=O)n(C)c2cn(CC#N)nc12 (stereo partly drawn) [Compound A53, 2-(7-((2S,5R)-4-(1-(3,5-dimethylpyridin-2-yl)ethyl)-2,5-diethylpiperazin-1-yl)-4-methyl-5-oxo-4,5-dihydro-2H-pyrazolo[4,3-b]pyridin-2-yl)acetonitrile] |
| 0.312 µM | 0.378 µM | CC[C@H]1CN(C(C)c2ccc(OC)c(F)c2)[C@H](CC)CN1c1cc(=O)n(C)c2cn(CC#N)nc12 (stereo partly drawn) [Compound A20, 2-(7-((2S,5R)-2,5-diethyl-4-(1-(3-fluoro-4-methoxyphenyl)ethyl)piperazin-1-yl)-4-methyl-5-oxo-4,5-dihydro-2H-pyrazolo[4,3-b]pyridin-2-yl)acetonitrile] |
| 0.229 µM | 1 µM | CC[C@H]1CN(C(C)c2ccc(C(F)(F)F)c(C)c2)[C@H](CC)CN1c1cc(=O)n(C)c2cn(CC#N)nc12 (stereo partly drawn) [Compound A8, 2-(7-((2S,5R)-2,5-diethyl-4-(1-(3-methyl-4-(trifluoromethyl)phenyl)ethyl)piperazin-1-yl)-4-methyl-5-oxo-4,5-dihydro-2H-pyrazolo[4,3-b]pyridin-2-yl)acetonitrile] |
| 0.202 µM | 0.05 µM | CC[C@H]1CN(C(C)c2ccc(CN3CC(F)(F)C3)cc2)[C@H](CC)CN1c1cc(=O)n(C)c2cn(CC#N)nc12 (stereo partly drawn) [Compound A27, 2-(7-((2S,5R)-4-(1-(4-((3,3-difluoroazetidin-1-yl)methyl)phenyl)ethyl)-2,5-diethylpiperazin-1-yl)-4-methyl-5-oxo-4,5-dihydro-2H-pyrazolo[4,3-b]pyridin-2-yl)acetonitrile] |
| 0.181 µM | 2.33 µM | CC#CCn1cc2c(n1)c(N1C[C@@H](CC)N(C(C)c3ccc4nc(C)sc4c3F)C[C@@H]1C)cc(=O)n2C (single isomer, unassigned) [Compound A116a] |
| 0.157 µM | 0.058 µM | CC[C@H]1CN(C(C)c2ccc3ocnc3c2)[C@H](CC)CN1c1cc(=O)n(C)c2cn(CC#N)nc12 (stereo partly shown) [Compound A105] |
| 0.154 µM | 0.021 µM | CC[C@H]1CN(C(C)c2ccc(C3CC3)c(F)n2)[C@H](CC)CN1c1cc(=O)n(C)c2cn(CC#N)nc12 (stereo partly drawn) [Compound A62, 2-(7-((2S,5R)-4-(1-(5-cyclopropyl-6-fluoropyridin-2-yl)ethyl)-2,5-diethylpiperazin-1-yl)-4-methyl-5-oxo-4,5-dihydro-2H-pyrazolo[4,3-b]pyridin-2-yl)acetonitrile] |
| 0.151 µM | 0.347 µM | CC[C@H]1CN(C(C)c2ccc(OC)nc2)[C@H](CC)CN1c1cc(=O)n(C)c2cn(CC#N)nc12 (stereo partly drawn) [Compound A41, 2-(7-((2S,5R)-2,5-diethyl-4-(1-(6-methoxypyridin-3-yl)ethyl)piperazin-1-yl)-4-methyl-5-oxo-4,5-dihydro-2H-pyrazolo[4,3-b]pyridin-2-yl)acetonitrile] |
| 0.071 µM | 0.357 µM | CC[C@H]1CN(C(C)c2ccc(C3CC3)nc2)[C@H](CC)CN1c1nc(=O)n(C)c2cn(CC#N)nc12 (single isomer, unassigned) [Compound A127a] |
| 0.0525 µM | 0.109 µM | CC[C@H]1CN(C(C)c2ccn3nc(C)c(F)c3n2)[C@H](CC)CN1c1nc(=O)n(C)c2cn(CC#N)nc12 (single isomer, unassigned) [Compound A170b] |
| 0.051 µM | 0.093 µM | CC[C@H]1CN(C(C)c2ccc3ncsc3n2)[C@H](CC)CN1c1nc(=O)n(C)c2cn(CC#N)nc12 (single isomer, unassigned) [Compound A126b] |
| 0.046 µM | 0.085 µM | CC[C@@H]1CN(c2cc(=O)n(C)c3cn(CC#N)nc23)[C@@H](C)CN1C(C)c1ccc2ncsc2n1 (single isomer, unassigned) [Compound A100a] |
| 0.033 µM | 0.027 µM | CC[C@H]1CN(C(C)c2ccc3c(n2)CCC3)[C@H](CC)CN1c1cc(=O)n(C)c2cn(CC#N)nc12 (stereo partly drawn) [Compound A72, 2-(7-((2S,5R)-4-(1-(6,7-dihydro-5H-cyclopenta[b]pyridin-2-yl)ethyl)-2,5-diethylpiperazin-1-yl)-4-methyl-5-oxo-4,5-dihydro-2H-pyrazolo[4,3-b]pyridin-2-yl)acetonitrile] |
| 0.026 µM | 0.246 µM | CC[C@@H]1CN(c2cc(=O)n(C)c3cn(CC#N)nc23)[C@@H](C)CN1C(C)c1ccc2cc(C)sc2n1 (stereo partly drawn) [Compound A131, 2-(7-((2S,5R)-5-ethyl-2-methyl-4-(1-(2-methylthieno[2,3-b]pyridin-6-yl)ethyl)piperazin-1-yl)-4-methyl-5-oxo-4,5-dihydro-2H-pyrazolo[4,3-b]pyridin-2-yl)acetonitrile] |
| 0.019 µM | 2.61 µM | CC[C@H]1CN(C(C)c2cc(F)c3ncsc3c2)[C@H](CC)CN1c1cc(=O)n(C)c2cn(CC#N)nc12 (single isomer, unassigned) [Compound A101a] |
| 0.0078 µM | 1.04 µM | CC[C@H]1CN(C(C)c2cc3c(cc2F)OC(C)(C)CO3)[C@H](CC)CN1c1cc(=O)n(C)c2cn(CC#N)nc12 (stereo partly drawn) [Compound A64, 2-(7-((2S,5R)-2,5-diethyl-4-(1-(7-fluoro-2,2-dimethyl-2,3-dihydrobenzo[b][1,4]dioxin-6-yl)ethyl)piperazin-1-yl)-4-methyl-5-oxo-4,5-dihydro-2H-pyrazolo[4,3-b]pyridin-2-yl)acetonitrile] |
